From patent US5859037A, “Sulfonylurea-glitazone combinations for diabetes” (Warner-Lambert Company, priority 1997, dated 1999)
“And” between values parts separate entries of the source, which are not always exact repeats. Equal values may be shown once.

Key:
Type in all cases: in vivo, patients
[1] = tested on: non-insulin dependent diabetes mellitus (NIDDM); assay: Glycemic control (FSG, HbA1c, responders) in 52-week double-blind clinical study; details: for ≥30 mg/dL Reduction in FSG, Responders, N (%) / ≥1% Reduction in HbA1c, Responders, N (%): *p ≤ 0.001 vs glyburide
Source text: The method of treating diabetes employing a combination of a sulfonylurea and a glitazone has been established in a long-term controlled clinical evaluation. The study determined the efficacy and safety of troglitazone alone and in combination with the sulfonylurea glyburide for the treatment of non-insulin dependent diabetes mellitus (NIDDM). This study targeted the segment of the NIDDM population in which the disease state has progressed to a point where maximum doses of sulfonylureas no longer produce adequate glycemic control. […] Since the unstimulated (absence of sulfonylurea) insulin secretory capacity of the beta cells is very low in this population, reversing insulin resistance alone would be of partial benefit. Therefore, maintaining a level of stimulated insulin secretion with a sulfonylurea while adding troglitazone to improve insulin sensitivity could provide a level of glycemic control unattainable by either medication alone. […] Long-term safety was also an objective of this study, assessed by adverse events and clinical laboratory data. This was a 12-month, double-blind, randomized, parallel-group, active-control, multicenter study design (FIG. 1). […] The primary efficacy parameters included endpoints related to glucose homeostasis: FSG and HbA1c. The change from baseline in these parameters at Week 52 compared to active control (glyburide) was the primary measure of efficacy. For patients terminating early from the study, their last observation was carried forward (LOCF) to Week 52. A decrease in these parameters was indicative of an improvement in glycemic control. Efficacy analysis was performed on 2 patient populations, intent-to-treat and completers. […] Patients withdrawing from the study before Week 52 were included in the analysis using the LOCF procedure; the last measurement on treatment was substituted for the missing Week 52 measurement. The intent-to-treat patient sample was the primary sample for assessing efficacy. Completers comprised patients in the intent-to-treat sample who completed Week 52. The analysis of change from baseline to Week 52 was performed using analysis of covariance (ANCOVA). The primary model included effects due to treatment and center and baseline as covariate. Treatment-by-baseline and treatment-by-center interactions were also examined in supplemental models. For the primary comparisons of glyburide versus each combination, step-down tests for linear trend in dose response were performed based on the primary model. For the remaining primary pairwise comparisons of glyburide versus each monotherapy, t-tests were performed using the MSE from the analysis of covariance (with a Bonferroni-Holm adjustment). For all comparisons with glyburide, 95 confidence intervals are provided using Dunnett's test. […] For each patient, the baseline measurement for a given parameter was defined as the measurement at Week 0. […] The frequency distribution (number and percentage) of responders were provided by treatment group and visit. For the set of primary treatment comparisons concerning glyburide versus combination therapy, step-down comparisons of responders in each treatment group versus the glyburide group were performed by sequential application of the Cochran-Mantel-Haenszel (CMH) test for linear trend with study centers as strata. […] The CMH test for general association were also used to perform the secondary treatment comparisons as supplemental analysis.

[2] = tested on: non-insulin dependent diabetes mellitus (NIDDM); assay: Patient disposition (withdrawal, completion)
Source text: This was a 12-month, double-blind, randomized, parallel-group, active-control, multicenter study design (FIG. 1). […] Patients could withdraw voluntarily at any time during the study or be withdrawn by the investigator because of significant adverse events or deterioration in health, poor compliance, pregnancy, or prolonged symptomatic hyperglycemia or persistent worsening or failure to improve glycemic control as monitored by FSG.

[3] = tested on: total insulin and C-peptide; assay: Fasting total insulin and C-peptide in 52-week clinical study; details: for C-Peptide, Adjusted Mean Change From Baseline (SE) / Total Insulin, Adjusted Mean Change From Baseline (SE) / C-Peptide, Adjusted Mean Difference From Glyburide / Total Insulin, Adjusted Mean Difference From Glyburide: ITT, Week 52; for C-Peptide, Adjusted Mean Difference From Glyburide / Total Insulin, Adjusted Mean Difference From Glyburide: *p ≤ 0.05
Description: This was a 12-month, double-blind, randomized, parallel-group, active-control, multicenter study design (FIG. 1). […] Secondary efficacy parameters included markers of glycemic homeostasis (insulin and C-peptide) and markers of lipid metabolism (total cholesterol, total triglycerides, HDL, VLDL, LDL (measured), free fatty acids, Lp(a), Apo A1, and Apo B). Efficacy analysis was performed on 2 patient populations, intent-to-treat and completers. […] Patients withdrawing from the study before Week 52 were included in the analysis using the LOCF procedure; the last measurement on treatment was substituted for the missing Week 52 measurement. The intent-to-treat patient sample was the primary sample for assessing efficacy. Completers comprised patients in the intent-to-treat sample who completed Week 52. The analysis of change from baseline to Week 52 was performed using analysis of covariance (ANCOVA). The primary model included effects due to treatment and center and baseline as covariate. Treatment-by-baseline and treatment-by-center interactions were also examined in supplemental models.

[4] = Body weight in clinical study; details: Month 12; for Body weight, Adjusted Mean Change From Baseline (SE): ITT
Source text: This was a 12-month, double-blind, randomized, parallel-group, active-control, multicenter study design (FIG. 1). […] Patients were instructed to fast overnight prior to visits requiring specimen collection.

[5] = Completers, Week 52, troglitazone 200 mg, or 200 mg/12 mg in combination
[6] = Completers, Week 52, troglitazone 200 mg, or 200 mg/12 mg in combination, *p ≤ 0.05, **p ≤ 0.0001
[7] = Completers, Week 52, troglitazone 400 mg, or 400 mg/12 mg in combination
[8] = Completers, Week 52, troglitazone 600 mg, or 600 mg/12 mg in combination
[9] = ITT, Week 52, troglitazone 200 mg, or 200/12 mg in combination
[10] = ITT, Week 52, troglitazone 400 mg, or 400 mg/12 mg in combination, *p ≤ 0.001, **p ≤ 0.0001
[11] = ITT, Week 52, troglitazone 400 mg, or 400/12 mg in combination
[12] = ITT, Week 52, troglitazone 600 mg, or 600 mg/12 mg in combination, *p ≤ 0.001, **p ≤ 0.0001
[13] = ITT, Week 52, troglitazone 600 mg, or 600/12 mg in combination
[14] = troglitazone 200 mg, or 200 mg/12 mg in combination
[15] = troglitazone 400 mg, or 400 mg/12 mg in combination
[16] = troglitazone 600 mg, or 600 mg/12 mg in combination
[17] = Week 52, compared with glyburide

Cc1c(C)c2c(c(C)c1O)CCC(C)(COc1ccc(CC3SC(=O)NC3=O)cc1)O2 (stereo not shown) [Troglitazone]
Fasting Serum Glucose, Adjusted Mean Change From Baseline (SE) [1, 5]: 13.4 (12.0) mg/dL | Hemoglobin A1c, Adjusted Mean Change From Baseline (SE) [1, 5]: 0.55 (0.38) % | Fasting Serum Glucose, Adjusted Mean Difference From Glyburide Monotherapy (SE) [1, 6]: 0.3 (14.6) mg/dL | Hemoglobin A1c, Adjusted Mean Difference From Glyburide Monotherapy (SE) [1, 6]: -0.23 (0.46) % | Fasting Serum Glucose, Adjusted Mean Change From Baseline (SE) [1, 7]: -20.5 (9.4) mg/dL | Hemoglobin A1c, Adjusted Mean Change From Baseline (SE) [1, 7]: -0.25 (0.29) % | Fasting Serum Glucose, Adjusted Mean Change From Baseline (SE) [1, 8]: -11.7 (9.8) mg/dL | Hemoglobin A1c, Adjusted Mean Change From Baseline (SE) [1, 8]: -0.26 (0.30) % | Fasting Serum Glucose, Adjusted Mean Difference From Glyburide Monotherapy (SE) ([1]; Completers, Week 52, troglitazone 600 mg, or 600 mg/12 mg in combination, *p ≤ 0.05, **p ≤ 0.0001): -24.8 (12.6) mg/dL | Fasting Serum Glucose, Adjusted Mean Change From Baseline (SE) ([1]; ITT, Week 52 (Month 12), troglitazone 200 mg, or 200 mg/12 mg in combination): 42.4 (7.0) mg/dL | Fasting Serum Glucose, Adjusted Mean Change From Baseline (SE) ([1]; ITT, Week 52 (Month 12), troglitazone 400 mg, or 400 mg/12 mg in combination): 20.6 (7.0) mg/dL | Fasting Serum Glucose, Adjusted Mean Change From Baseline (SE) ([1]; ITT, Week 52 (Month 12), troglitazone 600 mg, or 600 mg/12 mg in combination): 11.1 (7.1) mg/dL | FSG versus glyburide (result in words) ([1]; ITT, Week 52, 400 and 600 mg troglitazone monotherapy): these decreases were not significant | Hemoglobin A1c, Adjusted Mean Change From Baseline (SE) ([1]; ITT, Week 52, troglitazone 200 mg, or 200 mg/12 mg in combination): 1.92 (0.20) % | Fasting Serum Glucose, Adjusted Mean Difference From Glyburide Monotherapy (SE) ([1]; ITT, Week 52, troglitazone 200 mg, or 200 mg/12 mg in combination, *p ≤ 0.001, **p ≤ 0.0001): 19.6 (9.7) mg/dL | Hemoglobin A1c, Adjusted Mean Change From Baseline (SE) ([1]; ITT, Week 52, troglitazone 200 mg, or 200 mg/12 mg in combination, listed as troglitazone): 1.92% | ≥30 mg/dL Reduction in FSG, Responders, N (%) [1, 9]: 11 (14) N (%) | ≥1% Reduction in HbA1c, Responders, N (%) [1, 9]: 3 (4) N (%) | Hemoglobin A1c, Adjusted Mean Change From Baseline (SE) ([1]; ITT, Week 52, troglitazone 400 mg, or 400 mg/12 mg in combination): 0.85 (0.20) % | Fasting Serum Glucose, Adjusted Mean Difference From Glyburide Monotherapy (SE) [1, 10]: -2.2 (9.7) mg/dL | Hemoglobin A1c, Adjusted Mean Difference From Glyburide Monotherapy (SE) [1, 10]: -0.05 (0.28) % | ≥30 mg/dL Reduction in FSG, Responders, N (%) [1, 11]: 20 (26) N (%) | ≥1% Reduction in HbA1c, Responders, N (%) [1, 11]: 13 (17) N (%) | Hemoglobin A1c, Adjusted Mean Change From Baseline (SE) ([1]; ITT, Week 52, troglitazone 600 mg, or 600 mg/12 mg in combination): 0.93 (0.20) % | Fasting Serum Glucose, Adjusted Mean Difference From Glyburide Monotherapy (SE) [1, 12]: -11.6 (9.7) mg/dL | Hemoglobin A1c, Adjusted Mean Difference From Glyburide Monotherapy (SE) [1, 12]: 0.03 (0.28) % | ≥30 mg/dL Reduction in FSG, Responders, N (%) [1, 13]: 18 (24) N (%) | ≥1% Reduction in HbA1c, Responders, N (%) [1, 13]: 8 (11) N (%) | HbA1c versus glyburide monotherapy (result in words) ([1]; completers, 400 and 600 mg troglitazone monotherapy, p ≤0.05): HbA1c decreased significantly (p ≤0.05) compared with glyburide monotherapy | withdrawal for lack of efficacy ([2]; 200 mg troglitazone): ~60% and 55% | Withdrawn, Adverse Event, Number (%) of Patients [2, 14]: 6 (7.7) Number (%) of Patients | Withdrawn, Lack of Efficacy, Number (%) of Patients [2, 14]: 43 (55.1) Number (%) of Patients | Withdrawn, Adverse Event, Number (%) of Patients [2, 15]: 7 (8.6) Number (%) of Patients | Withdrawn, Lack of Efficacy, Number (%) of Patients [2, 15]: 32 (39.5) Number (%) of Patients | Withdrawn, Adverse Event, Number (%) of Patients [2, 16]: 6 (7.7) Number (%) of Patients | Withdrawn, Lack of Efficacy, Number (%) of Patients [2, 16]: 34 (43.6) Number (%) of Patients | C-Peptide, Adjusted Mean Change From Baseline (SE) [3, 14]: -0.96 (0.07) ng/mL | Total Insulin, Adjusted Mean Change From Baseline (SE) [3, 14]: -8.41 (1.39) μIU/mL | C-Peptide, Adjusted Mean Difference From Glyburide [3, 14]: 0.29 ng/mL | Total Insulin, Adjusted Mean Difference From Glyburide [3, 14]: -6.96 μIU/mL | C-Peptide, Adjusted Mean Change From Baseline (SE) [3, 15]: -0.78 (0.07) ng/mL | Total Insulin, Adjusted Mean Change From Baseline (SE) [3, 15]: -5.90 (1.40) μIU/mL | C-Peptide, Adjusted Mean Difference From Glyburide [3, 15]: -0.11 ng/mL | Total Insulin, Adjusted Mean Difference From Glyburide [3, 15]: -4.44 μIU/mL | C-Peptide, Adjusted Mean Change From Baseline (SE) [3, 16]: -1.01 (0.08) ng/mL | Total Insulin, Adjusted Mean Change From Baseline (SE) [3, 16]: -11.53 (1.42) μIU/mL | C-Peptide, Adjusted Mean Difference From Glyburide [3, 16]: 0.34 ng/mL | Total Insulin, Adjusted Mean Difference From Glyburide [3, 16]: -10.07 μIU/mL | C-peptide (result in words) [3, 17]: Significant (p≤0.05) decreases in C-peptide were observed for troglitazone monotherapy only (200 and 600 mg troglitazone) | total insulin (result in words) [3, 17]: significant (p≤0.05) decrease in total insulin compared with glyburide | total insulin, completers (result in words) ([3]; completers, 400 and 600 mg troglitazone, p<0.05 vs glyburide): decreases in total insulin that were significantly different from glyburide (p<0.05) | Body weight, Adjusted Mean Change From Baseline (SE) ([4]; troglitazone 200 mg, or 200/12 mg in combination): -6.9 lbs | Body weight, Adjusted Mean Change From Baseline (SE) ([4]; troglitazone 400 mg, or 400/12 mg in combination): -3.9 lbs | Body weight, Adjusted Mean Change From Baseline (SE) ([4]; troglitazone 600 mg, or 600/12 mg in combination): -0.8 lbs | mean decrease in body weight from baseline ([4]; monotherapy (troglitazone: range over doses)): 1 to 7 lbs
